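All cell lines were grown in 96-well plates and treated with compound for 48 hours. At the GI50, growth is halved. TGI marks complete inhibition of growth.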 Bounds are passed on as bounds.

Some test systems named below: 786-0 renal; IGROV1 ovarian; K-562 leukemia; LOX IMVI melanoma; M14 melanoma; MCF7 breast; NCI-H460 lung; SF-268 CNS; SF-295 CNS; SN12C renal.
Holding throughout (assay): inhibition of tumour cell growth, NCI panel, 48 h

Regarding `CCOC(=O)Cc1csc(NC(=O)C(OC(=O)c2ccc(Cl)cc2)c2ccccc2)n1` (stereo not given), the GI50 in the assay with 786-0 renal is 42.8 µM; in the assay on IGROV1 ovarian it was 47 µM; in the assay on K-562 leukemia it was 27.1 µM; with LOX IMVI melanoma, 33.6 µM; in the assay on M14 melanoma, 22.1 µM; with MCF7 breast, 34 µM. For the same molecule, the GI50 with NCI-H460 lung was 36.1 µM; in the assay with SF-268 CNS, 28.7 µM; in the assay with SF-295 CNS, 24.6 µM; with SN12C renal, 37.8 µM. Also, the TGI in the assay with 786-0 renal was more than 100 µM; with IGROV1 ovarian, more than 100 µM; in the assay with K-562 leukemia it was more than 100 µM; in the assay on LOX IMVI melanoma it was more than 100 µM; in the assay with M14 melanoma, 52 µM; in the assay on MCF7 breast, more than 100 µM. Moreover, the TGI in the assay with NCI-H460 lung is more than 100 µM; with SF-268 CNS, more than 100 µM; in the assay with SF-295 CNS, 56.8 µM; in the assay on SN12C renal it was more than 100 µM.

Turning to `COc1cc(-n2cc(-c3ccc(Cl)cc3)n(-c3ccccc3)c2=O)cc(OC)c1OC`, the GI50 in the assay with 786-0 renal is 30.7 µM; in the assay with IGROV1 ovarian, 7.87 µM; in the assay on K-562 leukemia it was 13.6 µM; in the assay with LOX IMVI melanoma, 24.3 µM; in the assay on M14 melanoma, 23.8 µM; in the assay on MCF7 breast it was 15.9 µM. Moreover, the GI50 in the assay with NCI-H460 lung was 14.9 µM; with SF-268 CNS, 31.2 µM; in the assay on SF-295 CNS it was 19.3 µM; with SN12C renal, 23.3 µM. Further, the TGI in the assay with 786-0 renal is more than 100 µM; with IGROV1 ovarian, 36.2 µM; in the assay with K-562 leukemia, more than 100 µM; in the assay on LOX IMVI melanoma it was more than 100 µM; in the assay on M14 melanoma, 98.9 µM; in the assay on MCF7 breast, 56 µM. Also, the TGI with NCI-H460 lung is more than 100 µM; in the assay with SF-268 CNS, more than 100 µM; with SF-295 CNS, more than 100 µM; with SN12C renal, more than 72.5 µM.

Take `Nc1nc(-c2cccnc2)cc(-c2cc(-c3cccnc3)nc(N)n2)n1`: the TGI in the assay on 786-0 renal, in the assay on IGROV1 ovarian, with K-562 leukemia, in the assay with LOX IMVI melanoma, in the assay on M14 melanoma and in the assay with MCF7 breast was more than 100 µM each time. In addition, the TGI with NCI-H460 lung, in the assay with SF-268 CNS, in the assay with SF-295 CNS and with SN12C renal was more than 100 µM each time.

Take `COc1ccc(C(=O)/C=C/c2cc(-c3ccc(OC)c(OC)c3)n[nH]2)cc1OC`: the GI50 was 1.81 µM with 786-0 renal; 3.13 µM with IGROV1 ovarian; 0.619 µM in the assay with K-562 leukemia; 1.29 µM in the assay with LOX IMVI melanoma; 1.91 µM with M14 melanoma; 0.937 µM in the assay on MCF7 breast. Also, the GI50 in the assay on NCI-H460 lung is 0.606 µM; in the assay with SF-268 CNS, 2.09 µM; in the assay with SF-295 CNS, 1.6 µM; in the assay on SN12C renal, 1.92 µM. The TGI with 786-0 renal was 5.14 µM; in the assay on IGROV1 ovarian it was 53.8 µM; in the assay on K-562 leukemia, more than 100 µM; with LOX IMVI melanoma it was 2.7 µM; in the assay with M14 melanoma, 4.11 µM; in the assay with MCF7 breast it was 8.02 µM. In addition, the TGI with NCI-H460 lung is 4.36 µM; in the assay with SF-268 CNS it was 9.82 µM; with SF-295 CNS, 5.05 µM; in the assay with SN12C renal it was 4.82 µM.

Take `O=S(O)O.O=S(O)O.[Co].[NH2-].[NH2-].[NH2-].[NH2-]`: the GI50 in the assay on 786-0 renal, with IGROV1 ovarian, in the assay on K-562 leukemia, with LOX IMVI melanoma, with M14 melanoma and in the assay with MCF7 breast was more than 100 µM each time. Further, the GI50 in the assay on NCI-H460 lung, with SF-268 CNS, in the assay with SF-295 CNS and in the assay on SN12C renal was more than 100 µM each time. The TGI in the assay with 786-0 renal, with IGROV1 ovarian, in the assay on K-562 leukemia, in the assay on LOX IMVI melanoma, in the assay with M14 melanoma and in the assay with MCF7 breast was more than 100 µM throughout. Besides, the TGI with NCI-H460 lung, in the assay on SF-268 CNS, in the assay with SF-295 CNS and with SN12C renal was more than 100 µM in each case.

`NC(=O)c1cn(C2CC(O)C(CO)O2)c2ncnc(N)c12` (stereo not given): the GI50 with 786-0 renal is 4.15 µM; in the assay on IGROV1 ovarian it was 0.749 µM; with K-562 leukemia, 4.21 µM; in the assay with LOX IMVI melanoma, 1.2 µM; with M14 melanoma, 3.12 µM; in the assay on MCF7 breast it was 0.376 µM. Besides, the GI50 with NCI-H460 lung is 7.69 µM; in the assay with SF-268 CNS, 6.17 µM; with SF-295 CNS it was 12.6 µM; in the assay on SN12C renal it was 1.56 µM. Moreover, the TGI in the assay on 786-0 renal was 18.9 µM; in the assay on IGROV1 ovarian, 5.16 µM; in the assay with K-562 leukemia, more than 100 µM; in the assay on LOX IMVI melanoma, 4.43 µM; in the assay with M14 melanoma, 22.6 µM; in the assay on MCF7 breast, 13.9 µM. For the same molecule, the TGI was more than 100 µM with NCI-H460 lung, more than 76.9 µM in the assay on SF-268 CNS, more than 76.6 µM in the assay on SF-295 CNS and 31.1 µM in the assay on SN12C renal.

Turning to `Clc1ccc(-c2cnc3c(-c4ccnc(N5CCNCC5)c4)cnn3c2)cc1`, the GI50 in the assay on 786-0 renal was 1.83 µM; in the assay with IGROV1 ovarian, 3.34 µM; in the assay with K-562 leukemia, 1.84 µM; in the assay on LOX IMVI melanoma, 1.91 µM; with M14 melanoma, 2 µM; in the assay on MCF7 breast, 1.85 µM. The GI50 in the assay with NCI-H460 lung is 1.89 µM; in the assay on SF-268 CNS, 1.91 µM; in the assay with SF-295 CNS it was 1.88 µM; in the assay with SN12C renal it was 1.7 µM. For the same molecule, the TGI was found to be 3.22 µM in the assay with 786-0 renal; 11.6 µM in the assay on IGROV1 ovarian; 3.74 µM in the assay with K-562 leukemia; 3.48 µM in the assay with LOX IMVI melanoma; 3.46 µM in the assay on M14 melanoma; 3.66 µM with MCF7 breast. Further, the TGI in the assay with NCI-H460 lung amounted to 3.53 µM; in the assay on SF-268 CNS, 3.69 µM; in the assay with SF-295 CNS, 3.57 µM; in the assay with SN12C renal, 3.34 µM.

Consider `CCOC(=O)c1c(NN2CCN(CC(F)(F)F)CC2)oc(/C=C2\C=Nc3ncccc32)c1O`, for which the GI50 in the assay on 786-0 renal was 3.13 µM; with IGROV1 ovarian, 7.43 µM; with K-562 leukemia, 2.14 µM; with LOX IMVI melanoma, 2.28 µM; in the assay with M14 melanoma, 4.77 µM; in the assay on MCF7 breast, 6.37 µM. Also, the GI50 was 3.49 µM in the assay on NCI-H460 lung, 3.04 µM with SF-268 CNS, 8.47 µM with SF-295 CNS and 4.26 µM in the assay on SN12C renal. Moreover, the TGI is 18.8 µM with 786-0 renal; 47.8 µM in the assay on IGROV1 ovarian; more than 100 µM in the assay on K-562 leukemia; 11.8 µM in the assay on LOX IMVI melanoma; 24.4 µM with M14 melanoma; 30.5 µM in the assay on MCF7 breast. The TGI is 20.2 µM in the assay with NCI-H460 lung, 16.1 µM in the assay on SF-268 CNS, 37.4 µM with SF-295 CNS and 42.6 µM in the assay on SN12C renal.

(Values after PubChem BioAssay (NCI).)
